In patent US20060004029A1, “Nitrogen-containing aromatic derivatives” (priority 2003, published 2006) one finds IC50 data, which are given here for one compound.

As usually defined, the IC50 is the concentration that inhibits the measured activity by half. Read a high IC50 as weaker potency in that assay.

In assay [1] the test system is Human Umbilical Vein Endothelial Cells (HUVECs). As to the kind of experiment: Inhibition against sandwich tube formation by vascular endothelial cells, VEGF-stimulated. It counts as cell-based. Particulars: HUVEC, 25 ng/ml VEGF and 10 ng/ml EGF, 4th day after addition. As for the experimental part: (§1) Human Umbilical Vein Endothelial Cells (HUVECs) were isolated according to a reported method (Shinseikagaku Jikken Koza [New Biochemistry Experiment Lectures], “Saibo Baiyo Gijutsu” [Cell Culturing Techniques], p. 197-202), • and were cultured in a 5% CO2 incubator (37° C.) using EGM-2 medium (purchased from Clonetics Corp.) until the cells reached confluency.
(§2) An ice-cooled mixture of collagen: 5×RPMI 1640: reconstitution buffer (all purchased from Nitta Gelatin, Inc.) at 7:2:1 was dispensed at 0.4 ml into each well of a 24-well plate. After the solution was gelled by being stationed for 40 minutes in a 5% CO2 incubator (37° C.), HUVEC cell suspension was added at 0.4 ml to each well (using 1 to 1.2×10^5 cells, though the numbers of cells differ slightly according to the HUVEC lot), the HUVEC cell suspension being in human endothelial serum free medium (SFM, purchased from GIBCO BRL) containing added angiogenesis factors [20 ng/ml FGF2 (purchased from GIBCO BRL) and 10 ng/ml EGF (purchased from GIBCO BRL), or 25 ng/ml VEGF (purchased from Wako Pure Chemical Industries Co., Ltd.) and 10 ng/ml EGF, or 30 ng/ml HGF (purchased from R&D Co.) and 10 ng/ml EGF], and cultured overnight in a 5% CO2 incubator (37° C.). On the following day, the medium on the upper layer was aspirated off, and then 0.4 ml of an ice-cooled mixture of collagen: 5×RPMI 1640: reconstitution buffer (all purchased from Nitta Gelatin, Inc.) at 7:2:1 was superposed into each well prior to stationing for 4 hours in a 5% CO2 incubator (37° C.) for gelling. After adding 1.5 ml of an SFM solution containing each of the aforementioned angiogenesis factors and a diluted test substance onto the upper layer, culturing was performed in a 5% CO2 incubator (37° C.). Upon aspirating off the culture supernatant in each well on the 4th day after addition of the test substance, 0.4 ml of a 3.3 mg/ml MTT solution dissolved in PBS (purchased from Sigma Corp.) was added to each well and culturing was performed for approximately 2 hours in a 5% CO2 incubator (37° C.). The tubes formed in the collagen gel of each well were stained by MTT, the tube images were loaded into a computer (Macintosh), and the total length of the tubes was determined by image analysis software “MacScope” (purchased from Mitani Corp.). The ratio of the total length of the tubes formed in the well containing the test substance with respect to the total length of the tubes formed in the well containing no test substance was expressed as a percentage, and the concentration of each test substance required for 50% inhibition of tube formation (IC50) was determined from the ratio value.

For assay [2] the test system is unchanged. As to the kind of experiment: Inhibition against sandwich tube formation by vascular endothelial cells, FGF2-stimulated. It is filed as cell-based. Particulars: HUVEC, 20 ng/ml FGF2 and 10 ng/ml EGF, 4th day after addition. How it is done: as §1, §2

On to `CCNC(=O)n1ccc2cc(Oc3ccnc(NC(=O)N4CCC(C)(O)CC4)c3)ccc21` [Example 78, 5-(2-(((4-Hydroxy-4-methylpiperidin-1-yl)carbonyl)amino)pyridin-4-yloxy)-1H-indole-1-carboxylic acid ethylamide], for which the half-maximal inhibitory concentration (IC50) is 0.003 µM in assay [1] and 0.45 µM in assay [2].
